Experimental data taken from patent US20050186617A1, “Gene screening method using nuclear receptor” (Chugai Seiyaku Kabushiki Kaisha, a Japanese corporation, priority 1997, published 2005).

Tests used:
1α (OH)-ase gene = assay: Northern blot of CYP1AD (1α(OH)-ase) gene expression in mice given excess 1α,25(OH)2D3; assay type: in vivo; conditions: 50 ng/mouse
Excerpt: The tissue distribution of CYP1AD transcripts in 7-week-old normal and VDR−/− mice was examined. Poly(A)^+ RNA was extracted from brain, lung, heart, liver, spleen, kidney, small intestine, skeletal muscle, skin, and bone, and analyzed by northern blot technique using cDNA of CYP1AD and β-actin as probes (K. Takeyama et al., Biochem. Biophys. Res. Commun. 222, 395 (1996); H. Mano et al., J. Biol. Chem. 269, 1591 (1994)). As the result, the transcript of CYP1AD was detected as a single band in the kidney. The size of the transcript (2.4 kbp) is identical to that of cloned cDNA (FIG. 10). Except for kidney, in, 1α (OH)-ase activity has been reported in other tissues than kidney (A. W. Norman, J. Roth, L. Orchi, Endocr. Rev. 3, 331 (1982); H. F. DeLuca, Adv. Exp. Med. Biol. 196, 361 (1986); M. R. Walters, Endocr. Rev 13, 719 (1992); G. A. Howard, R. T. Turner, D. J. Sherrard, D. J. Baylink, J. Biol. Chem. 256, 7738 (1981); T. K. Gray, G. E. Lester, R. S. Lorenc, Science 204, 1311 (1979)). However, the transcript of 1α (OH)-ase was not detected in tissues other than kidney in this experiment.
The relative amount of the hydroxylase gene standardized with the β-actin gene transcripts was measured in at least 5 mice for each group (FIG. 12).

GAL4-VDR(DEF) = assay: CAT reporter assay in COS-1 cells co-transformed with GAL4-VDR(DEF) and 17M2-G-CAT; assay type: cell-based

| SMILES | expression of the 1α (OH)-ase gene (1α (OH)-ase gene; 3- and 7-week-old VDR−/− mice) | expression of the 1α (OH)-ase gene (1α (OH)-ase gene; VDR+/+ and VDR+/− mice) | activation of the CAT reporter gene (GAL4-VDR(DEF); CYP1AD expressed, with ADX and ADR expression vectors) | activation of the CAT reporter gene (GAL4-VDR(DEF); in the absence of ADX or ADR) |
| --- | --- | --- | --- | --- |
| C=C1/C(=C\C=C2/CCC[C@]3(C)[C@@H]([C@H](C)CCCC(C)(C)O)CC[C@@H]23)C[C@@H](O)C[C@@H]1O [1α,25(OH)2D3, 1α,25-Dihydroxyvitamin D3] | the inhibition did not occurred | significantly inhibited |  |  |
| C=C1CC[C@H](O)C/C1=C/C=C1\CCC[C@]2(C)[C@@H]([C@H](C)CCCC(C)(C)O)CC[C@@H]12 [25(OH)D3, 25-hydroxyvitamin D3] |  |  | activated the CAT reporter gene | did not significantly activate the reporter gene |
